Reference: patent US20240109900A1, “AZABICYCLIC SHP2 INHIBITORS” (IRBM S.P.A., priority 2021, published 2024)
Like-named read-outs stand apart in the source and are kept apart here.

Experiments:
[1] = target: SHP-2 enzyme (Met1-Leu525) (Homo sapiens (Human), UniProt Q06124); test: SHP2 inhibition enzymatic assay; assay type: biochemical; conditions: 0.5 nM SHP-2 activated by 500 nM IRS1 peptide, 75 μM DiFMUP substrate; read-out: SHP2wt-IC50
Outline: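 SHP-2 (Met1-Leu525), 0.5 nM, activated with 500 nM IRS1 bis-phosphopeptide, preincubated 30 min with compounds in HEPES pH 7.2 buffer with 5 mM DTT. 75 μM DiFMUP added for 30 min at room temperature, stopped with bpV; fluorescence read. IC50 from four-parameter logistic fit of % inhibition.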

[2] = test system: ERK phosphorylation in KYSE-520 cells; test: Phospho-ERK cellular assay; assay type: cell-based; conditions: read-out: PERK IC50
Outline: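 TR-FRET read-out of ERK1/2 Thr202/Tyr204 phosphorylation was taken after overnight antibody incubation at room temperature. Before that, KYSE-520 cells were treated 2 h at 37 °C with compound dilutions and lysed 30 min. Percent inhibition relative to vehicle and cell-free wells was fitted four-parametrically to give IC50.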

[3] = Homo sapiens, KYSE-520, 2 h, KYSE-520 cells, 2 h at 37° C., phospho-ERK1/2 (Thr202/Tyr204) TR-FRET

Chain of SHP-2 enzyme (Met1-Leu525) (Q06124 1-525): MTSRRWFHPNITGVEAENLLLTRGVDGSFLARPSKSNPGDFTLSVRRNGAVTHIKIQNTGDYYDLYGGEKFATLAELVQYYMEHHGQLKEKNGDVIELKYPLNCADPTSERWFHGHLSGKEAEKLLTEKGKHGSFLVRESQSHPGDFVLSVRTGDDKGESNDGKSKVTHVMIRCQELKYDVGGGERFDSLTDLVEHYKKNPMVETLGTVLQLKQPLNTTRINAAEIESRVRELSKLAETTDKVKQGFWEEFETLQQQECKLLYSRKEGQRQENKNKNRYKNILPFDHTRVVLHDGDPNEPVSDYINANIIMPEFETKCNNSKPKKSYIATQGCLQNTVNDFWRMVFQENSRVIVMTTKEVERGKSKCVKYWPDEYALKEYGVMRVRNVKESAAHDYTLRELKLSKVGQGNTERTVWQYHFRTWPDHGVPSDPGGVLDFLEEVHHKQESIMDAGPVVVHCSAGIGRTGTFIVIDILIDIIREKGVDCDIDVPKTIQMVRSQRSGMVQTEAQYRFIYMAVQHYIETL

| Structure (SMILES) | IC50 [1] | IC50 [2, 3] | IC50 ([2]; KYSE-520 cells, 2 h at 37° C., phospho-ERK1/2 (Thr202/Tyr204) TR-FRET) | IC50 ([2]; Homo sapiens, KYSE-520, 2 h) | IC50 ([2]; Homo sapiens, KYSE-520 cells, 2 h at 37° C., phospho-ERK1/2 (Thr202/Tyr204) TR-FRET) |
| --- | --- | --- | --- | --- | --- |
| Cc1nc2ccc(-c3n[nH]c4nc(N5CC[C@@H]6[C@H](C5)[C@@]6(CN)c5ccc(F)cn5)cnc34)c(Cl)c2s1 [Example 121, ((1S,6R,7S)-3-(3-(7-chloro-2-methylbenzo[d]thiazol-6-yl)-1H-pyrazolo[3,4-b]pyrazin-6-yl)-7-(5-fluoropyridin-2-yl)-3-azabicyclo[4.1.0]heptan-7-yl)methanamine] | < 500 nM | < 1000 nM |  |  |  |
| Cc1cc([C@@]2(CN)[C@@H]3CCN(c4cnc5c(-c6cc(F)cc7ncccc67)n[nH]c5n4)C[C@@H]32)no1 [Example 130, ((1S,6R,7S)-3-(3-(7-fluoroquinolin-5-yl)-1H-pyrazolo[3,4-b]pyrazin-6-yl)-7-(5-methylisoxazol-3-yl)-3-azabicyclo[4.1.0]heptan-7-yl)methanamine] | 500 to 3000 nM | < 1000 nM |  |  |  |
| NCC1(c2ccc(F)cc2)C2CCN(c3cnc4c(-c5cccc(Cl)c5Cl)n[nH]c4n3)CC21 (stereo not drawn) [Example 10, (3-(3-(2,3-dichlorophenyl)-1H-pyrazolo[3,4-b]pyrazin-6-yl)-7-(4-fluorophenyl)-3-azabicyclo[4.1.0]heptan-7-yl)methanamine] | < 500 nM | < 1000 nM |  |  |  |
| Cc1csc(C2(CN)C3CCN(c4cnc5c(-c6ccc(OS(=O)(=O)F)c7ccccc67)n[nH]c5n4)CC32)n1 (stereo not drawn) [Example 103, 4-(6-(7-(aminomethyl)-7-(4-methylthiazol-2-yl)-3-azabicyclo[4.1.0]heptan-3-yl)-1H-pyrazolo[3,4-b]pyrazin-3-yl)naphthalen-1-yl sulfurofluoridate] | < 500 nM |  |  | < 1000 nM |  |
| NCC1C2CCN(c3cnc4c(-c5cccc(Cl)c5Cl)n[nH]c4n3)CC12 (stereo not drawn) [Example 100, (3-(3-(2,3-dichlorophenyl)-1H-pyrazolo[3,4-b]pyrazin-6-yl)-3-azabicyclo[4.1.0]heptan-7-yl)methanamine] | < 500 nM | < 1000 nM |  |  |  |
| CNc1nccc(-c2n[nH]c3nc(N4CCC5C(C4)C5(CN)c4cc(C)on4)cnc23)c1Cl (stereo not drawn) [Example 17, 4-(6-(7-(aminomethyl)-7-(5-methylisoxazol-3-yl)-3-azabicyclo[4.1.0]heptan-3-yl)-1H-pyrazolo[3,4-b]pyrazin-3-yl)-3-chloro-N-methylpyridin-2-amine] | < 500 nM | < 1000 nM |  |  |  |
| NC[C@]1(c2ccccc2F)[C@@H]2CCN(c3cnc4c(-c5ccc6nccnc6c5Cl)n[nH]c4n3)C[C@@H]21 [Example 167, ((1S,6R,7R)-3-(3-(5-chloroquinoxalin-6-yl)-1H-pyrazolo[3,4-b]pyrazin-6-yl)-7-(2-fluorophenyl)-3-azabicyclo[4.1.0]heptan-7-yl)methanamine] | < 500 nM | < 1000 nM |  |  |  |
| Cc1csc(C2(CN)C3CCN(c4cnc5c(-c6cccc(Cl)c6)n[nH]c5n4)CC32)n1 (stereo not drawn) [Example 85, (3-(3-(3-chlorophenyl)-1H-pyrazolo[3,4-b]pyrazin-6-yl)-7-(4-methylthiazol-2-yl)-3-azabicyclo[4.1.0]heptan-7-yl)methanamine] | < 500 nM | < 1000 nM |  |  |  |
| Cc1cc(C2(CN)C3CCN(c4cnc5c(-c6ccnc7ccccc67)n[nH]c5n4)CC32)no1 (stereo not drawn) [Example 27, (7-(5-methylisoxazol-3-yl)-3-(3-(quinolin-4-yl)-1H-pyrazolo[3,4-b]pyrazin-6-yl)-3-azabicyclo[4.1.0]heptan-7-yl)methanamine] | < 500 nM | < 1000 nM |  |  |  |
| Cc1csc([C@@]2(CN)[C@@H]3CN(c4cnc5c(-c6ccc(-n7cccn7)cc6Cl)n[nH]c5n4)C[C@@H]32)n1 [Example 283, ((1R,5S,6r)-3-(3-(2-chloro-4-(1H-pyrazol-1-yl)phenyl)-1H-pyrazolo[3,4-b]pyrazin-6-yl)-6-(4-methylthiazol-2-yl)-3-azabicyclo[3.1.0]hexan-6-yl)methanamine] | < 500 nM |  |  |  | < 1000 nM |
| Cc1cc(C2(CN)C3CCN(c4cnc5c(-c6cccc(Cl)c6Cl)n[nH]c5n4)CC32)no1 (stereo not drawn) [Example 8, (3-(3-(2,3-dichlorophenyl)-1H-pyrazolo[3,4-b]pyrazin-6-yl)-7-(5-methylisoxazol-3-yl)-3-azabicyclo[4.1.0]heptan-7-yl)methanamine] | < 500 nM | < 1000 nM |  |  |  |
| COC(C)c1ccc(-c2n[nH]c3nc(N4CC[C@@H]5[C@H](C4)[C@@]5(CN)c4ccccc4F)cnc23)c2cccnc12 (stereo partly drawn) [Example 165, ((1S,6R,7R)-7-(2-fluorophenyl)-3-(3-(8-(1-methoxyethyl)quinolin-5-yl)-1H-pyrazolo[3,4-b]pyrazin-6-yl)-3-azabicyclo[4.1.0]heptan-7-yl)methanamine] | < 500 nM | < 1000 nM |  |  |  |

The next lines start with results.

| IC50 [1] | IC50 [2, 3] | IC50 ([2]; KYSE-520 cells, 2 h at 37° C., phospho-ERK1/2 (Thr202/Tyr204) TR-FRET) | Structure (SMILES) | IC50 ([2]; Homo sapiens, KYSE-520, 2 h) | IC50 ([2]; Homo sapiens, KYSE-520 cells, 2 h at 37° C., phospho-ERK1/2 (Thr202/Tyr204) TR-FRET) |
| --- | --- | --- | --- | --- | --- |
| < 500 nM | < 1000 nM |  | NC[C@]1(c2ccccc2F)[C@@H]2CCN(c3cnc(Sc4ccc5nccnc5c4Cl)c(N)n3)C[C@@H]21 [Example 523, 6-((1S,6R,7R)-7-(aminomethyl)-7-(2-fluorophenyl)-3-azabicyclo[4.1.0]heptan-3-yl)-3-((5-chloroquinoxalin-6-yl)thio)pyrazin-2-amine] |  |  |
| < 500 nM | < 1000 nM |  | CS(=O)(=O)NC(=O)c1ccc(-c2n[nH]c3nc(N4CC[C@@H]5[C@H](C4)[C@@]5(CN)c4ccccc4F)cnc23)c2cccnc12 [Example 282, 5-(6-((1S,6R,7R)-7-(aminomethyl)-7-(2-fluorophenyl)-3-azabicyclo[4.1.0]heptan-3-yl)-1H-pyrazolo[3,4-b]pyrazin-3-yl)-N-(methylsulfonyl)quinoline-8-carboxamide] |  |  |
| < 500 nM | < 1000 nM |  | Cn1c(=O)oc2ccc(-c3n[nH]c4nc(N5CC[C@@H]6[C@H](C5)[C@@]6(CN)c5ccccc5F)cnc34)cc21 [Example 341, 5-(6-((1S,6R,7R)-7-(aminomethyl)-7-(2-fluorophenyl)-3-azabicyclo[4.1.0]heptan-3-yl)-1H-pyrazolo[3,4-b]pyrazin-3-yl)-3-methylbenzo[d]oxazol-2(3H)-one] |  |  |
| < 500 nM | < 1000 nM |  | Cn1cc2c(Cl)c(-c3n[nH]c4nc(N5CC[C@@H]6[C@H](CC5)C6(CN)c5ccccc5F)cnc34)ccc2n1 (stereo partly drawn) [Example 404, ((1R,7S)-4-(3-(4-chloro-2-methyl-2H-indazol-5-yl)-1H-pyrazolo[3,4-b]pyrazin-6-yl)-8-(2-fluorophenyl)-4-azabicyclo[5.1.0]octan-8-yl)methanamine] |  |  |
| < 500 nM | < 1000 nM |  | NC[C@]1(c2ccccc2F)[C@@H]2CCN(c3cnc4c(-c5ccc(C(N)=O)cc5F)n[nH]c4n3)C[C@@H]21 [Example 367, 4-(6-((1S,6R,7R)-7-(aminomethyl)-7-(2-fluorophenyl)-3-azabicyclo[4.1.0]heptan-3-yl)-1H-pyrazolo[3,4-b]pyrazin-3-yl)-3-fluorobenzamide] |  |  |
| < 500 nM | < 1000 nM |  | NC[C@]1(c2ccccc2F)[C@@H]2CCN(c3cnc4c(-c5cc[nH]c(=O)c5Cl)n[nH]c4n3)C[C@@H]21 [Example 268, 4-(6-((1S,6R,7R)-7-(aminomethyl)-7-(2-fluorophenyl)-3-azabicyclo[4.1.0]heptan-3-yl)-1H-pyrazolo[3,4-b]pyrazin-3-yl)-3-chloropyridin-2(1H)-one] |  |  |
| < 500 nM | > 5000 nM |  | NC[C@]1(c2ccccc2F)[C@@H]2CCN(c3cnc4c(-c5ccc(C(=O)O)cc5Cl)n[nH]c4n3)C[C@@H]21 [Example 271, 4-(6-((1S,6R,7R)-7-(aminomethyl)-7-(2-fluorophenyl)-3-azabicyclo[4.1.0]heptan-3-yl)-1H-pyrazolo[3,4-b]pyrazin-3-yl)-3-chlorobenzoic acid] |  |  |
| < 500 nM | < 1000 nM |  | Cn1cc2c(C3CC3)c(-c3n[nH]c4nc(N5CC[C@@H]6[C@H](C5)[C@@]6(CN)c5ccccc5F)cnc34)ccc2n1 [Example 194, ((1S,6R,7R)-3-(3-(4-cyclopropyl-2-methyl-2H-indazol-5-yl)-1H-pyrazolo[3,4-b]pyrazin-6-yl)-7-(2-fluorophenyl)-3-azabicyclo[4.1.0]heptan-7-yl)methanamine] |  |  |
| < 500 nM |  | < 1000 nM | Cc1csc([C@@]2(CN)[C@@H]3CN(c4cnc5c(-c6ccc7ncn(C)c7c6Cl)n[nH]c5n4)C[C@@H]32)n1 [Example 483] |  |  |
| < 500 nM | > 5000 nM |  | Cn1cc(-c2n[nH]c3nc(N4CC[C@@H]5[C@H](C4)[C@@]5(CN)c4ccccc4F)cnc23)cn1 [Example 347, ((1S,6R,7R)-7-(2-fluorophenyl)-3-(3-(1-methyl-1H-pyrazol-4-yl)-1H-pyrazolo[3,4-b]pyrazin-6-yl)-3-azabicyclo[4.1.0]heptan-7-yl)methanamine] |  |  |
| < 500 nM | < 1000 nM |  | NC[C@]1(c2ccccc2F)[C@@H]2CCN(c3cnc4c(-c5cc(N)ncc5Cl)n[nH]c4n3)C[C@@H]21 [Example 196, 4-(6-((1S,6R,7R)-7-(aminomethyl)-7-(2-fluorophenyl)-3-azabicyclo[4.1.0]heptan-3-yl)-1H-pyrazolo[3,4-b]pyrazin-3-yl)-5-chloropyridin-2-amine] |  |  |
| < 500 nM | < 1000 nM |  | Cc1c(-c2n[nH]c3nc(N4CC[C@@H]5[C@H](C4)[C@@]5(CN)c4ccccc4F)cnc23)ccc2nn(C)nc12 [Example 205, ((1S,6R,7R)-3-(3-(2,4-dimethyl-2H-benzo[d][1,2,3]triazol-5-yl)-1H-pyrazolo[3,4-b]pyrazin-6-yl)-7-(2-fluorophenyl)-3-azabicyclo[4.1.0]heptan-7-yl)methanamine] |  |  |
